# From patent US20070142326A1, “Treatment of a condition in a mammal with administration of aminosugar and uses thereof” (priority 2004, published 2007)
# Entries after “also recorded” stand apart in the source; their conditions may differ.
# Tests used:
# chondrocytes = conditions: low millimolar concentrations; cited from earlier work
# [1] = system: synovium of rabbits with ACLT (experimental OA); assay: Histological grading of synovium, ACLT rabbits, intra-articular injections; assay type: in vivo, New Zealand White rabbits
# Protocol: (§1) Anterior cruciate ligament transection (ACLT). Unilateral or bilateral ACLT was performed as indicated for each set of experiments. ACLT was performed using a medial arthrotomy technique (Yoshioka et al. Osteoarthritis Cartilage 1996; 4:87-98). After dislocating the patella laterally, the ACL was transected with a sharp blade. Complete transection was confirmed by a manual anterior drawer test The knee joints were irrigated with sterile saline and closed in layers with sutures. All animals were maintained individually with ad libitum activity. The animals were sacrificed 8 weeks after the surgery.
# (§2) Intra-articular injections of GlcNAc. Intra-articular injections of GlcNAc started one week post-operatively for a period of seven weeks. Rabbits were injected twice per week with GlcNAc in a volume of 0.3 ml per knee joint The single dose of GlcNAc per injection was 80 mg. Control animals were injected twice per week intra-articularly with normal saline (0.3 ml per joint). The third group of rabbits received intra-articular injections of hyaluronan (0.3 ml per joint) twice per week for seven weeks starting one week after the ACL transection. Synovial fluid analysis was performed in 3 animals that developed gross synovial effusions (2 animals in the control group and 1 animal in the hyaluronan group). In all three animals synovial fluid was culture negative.
# (§3) Histological grading of the knee joints. Distal femur and proximal tibia from the rabbit knee joints were fixed in 10% buffered formalin, decalcified in TBD-2 decalcifier (ThermoShandon, Pittsburg, Calif.) and embedded in paraffin blocks. Sagittal sections of lateral and medial femoral condyles, and coronal sections of tibial plateaus were used for further histological analysis.
# Histological assessment of synovium was based on the presence of synovial proliferation and synovial neoangiogenesis, and it was performed separately for the synovium attached to the tibial plateaus, lateral, and medial femoral condyles.
# [2] = system: knee joints of rabbits with ACL transection; assay: Gross morphological assessment of joint swelling and synovial effusion, ACLT rabbits, intra-articular injections; assay type: in vivo, New Zealand White rabbits; conditions: FIG. 4
# Protocol: as §1, §2
# (§4) Gross morphological assessment of the knee joints. Gross morphological assessment of the knee joints included assessment of joint swelling, synovial effusion, macroscopic articular cartilage morphology of tibial plateaus and femoral condyles, and assessment of the menisci.
# The following grading system was used to assess joint swelling: Grade 0-normal; Grade 1 (mild swelling)—mild inflammation and/or proliferation of the joint capsule; Grade 2 (moderate swelling)—thickening of joint capsule and/or inflammation of the synovium; Grade 3 (severe swelling)—abundant inflammation of the synovium, swelling of the menisci or ligaments (anterior cruciate ligament or posterior cruciate ligament).
# [3] = system: human articular chondrocytes; conditions: cited from earlier work
# [4] = Continuous delivery of GlcNAc to the joint (sustained release and alzet pump methods); conditions: after a single intra-articular administration
# Protocol: Release of GlcNAc from formulations incubated in phosphate buffered saline. An in vitro release study was performed in phosphate buffered saline to evaluated release kinetics under physiological conditions. Each sustained release formulation (100 μl) was placed in 1.0 mL of phosphate buffered saline and then incubated at 37° C. At different time points, the formulation matrix was separated by removing the phosphate buffered saline bathing solution with a pipet. The resulting solutions were analyzed by UV detection after GlcNAc derivatives were formed by methods previously described (Reissig et. al. J. Biol. Chem. 1955 217: 959-966). The formulation matrix was then re-suspended in 1.0 mL phosphate buffered saline and incubated under the same conditions as described above.
# Alzet Pump Administration of GlcNAc. New Zealand White rabbits, 3.0-3.5 kg, were used in this experiment. They were randomly allocated into five groups, each group having 8 rabbits. Group A was treated with saline (negative control group); Group B was treated with 1.5 M GlcNAc group; Group C was treated with 0.5 M GlcNAc group; Group D was treated with 0.15 M GlcNAc group; Group E was treated with 0.05 M GlcNAc group. All compounds were continuously delivered to the joints by Alzet mini pumps. The delivery rate for this pump was 2.5 μl/hour. […]
# [5] = system: articular cartilage of rabbits with ACLT (experimental OA); assay: Histological grading of articular cartilage, ACLT rabbits, intra-articular injections; assay type: in vivo, New Zealand White rabbits; conditions: N = 6; for Sulfated glycosaminoglycan loss, histological grade: grade 1-3 by loss of Safranin O staining, intra-articular 80 mg twice per week for 7 weeks; for Impairment of cartilage surface integrity, histological grade: grade 1 intact to 3 full thickness defect, intra-articular
# Protocol: as §1, §2, §3
# The assessment of sulfated glycosaminoglycan (SGAG) content was performed after staining of the tissue sections with Safranin O/Fast Green.
# The following grading system was used for assessing SGAG content: Grade 1—Less than 25% loss of Safranin O staining, Grade 2—25-50% loss of Safranin O staining; Grade 3—More than 50% loss of Safranin O staining;
# The following grading system was used for assessing cartilage integrity: Grade 1—Intact cartilage surface; Grade 2—Presence of fibrillations; Grade 3—Full thickness cartilage defect. In addition, all tissue samples were analyzed for the presence of chondrocyte proliferation or cloning.
# [6] = system: femoral condyles and tibial plateaus of rabbits with ACL transection; assay: Gross morphological assessment and digital imaging of articular cartilage, ACLT rabbits, intra-articular injections; assay type: in vivo, New Zealand White rabbits; conditions: for Gross morphological analysis of the femoral condyles: FIG. 2
# Protocol: as §1, §2
# Gross morphological assessment of the articular cartilage. The distal femur and proximal tibia were harvested keeping a 3.5 cm to 4 cm shaft of the bones. The articular cartilage surface of each specimen was covered with a solution consisting of India ink (Eberhard Faber, Lewisburg, Tenn.) in PBS (1:5 ratio). Excess ink solution was removed by gentle blotting with a tissue that was pre-moistened with PBS. Subsequently, all joints were photographed and digital images were analyzed.
# Digital imaging. Articular surfaces of femoral condyles and tibial plateaus were gently blotted dry and cleaned of loose tissue. Each femoral shaft was clamped to an optical bench. An image (resolution: 60 pixels per mm; onscreen magnification: 20×) of the femoral condyles was obtained using a Canon EOS D30 digital camera with a 100 mm macro lens at a distance of approximately 12 cm. A millimeter scale was included in the photograph to accurately scale the image. The scaled image was then projected onto a 3D model of the femoral condyles. The 3D surface area of the lesion was measured by interactively plotting the margins of the lesion. A digital image of articular surface of the tibia was obtained as described above.
# [7] = system: rabbits with bilateral anterior cruciate ligament transection (ACLT); assay: Intra-muscular GlcNAc in rabbits with bilateral ACLT, gross morphological grading; assay type: in vivo, New Zealand White rabbits
# Protocol: as §1
# Intra-muscular injections of GlcNAc. Intra-muscular injections of GlcNAc were performed three times per week starting one week postoperatively for a period of seven weeks. The dose of GlcNAc was 200 mg/kg per injection. The control group of received the same number of intra-muscular injections of normal saline.
# as §4
# Gross morphological assessment of the articular cartilage. […] Subsequently, all joints were photographed and digital images were analyzed.
# [8] = system: subchondral bone marrow of rabbits with ACLT (experimental OA); assay: Histological grading of subchondral bone marrow, ACLT rabbits, intra-articular injections; assay type: in vivo, New Zealand White rabbits
# Protocol: as §1, §2, §3
# Microscopic assessment of bone marrow was based on the presence of subchondral bone marrow hypercellularity and increased vascularization as shown in Table 3.
# [9] = system: synovial tissue of rabbits with ACL transection; assay: DNA content in synovial tissue, ACLT rabbits, intra-articular injections; assay type: in vivo, New Zealand White rabbits; conditions: FIG. 5
# Protocol: as §1
# Intra-articular injections of GlcNAc. Intra-articular injections of GlcNAc started one week post-operatively for a period of seven weeks. Rabbits were injected twice per week with GlcNAc in a volume of 0.3 ml per knee joint The single dose of GlcNAc per injection was 80 mg. Control animals were injected twice per week intra-articularly with normal saline (0.3 ml per joint). […]
# Measurement of DNA content in synovial tissue. Synovial tissue cellularity was assessed by quantitating the tissue concentration of DNA (Amiel et. al. J Orthop Res 1986; 4:162-172). […] The aqueous phase containing the DNA was harvested, and the absorbance was measured at […]. […] Results were expressed as mg DNA per mg of dry tissue.
smiles,measurement,setting,value
"N[C@H]1C(O)O[C@H](CO)[C@@H](O)[C@@H]1O (stereo partly drawn) [GlcN, glucosamine]",Cytotoxicity for chondrocytes,chondrocytes,cytotoxic for chondrocytes at low millimolar concentrations
"CC(=O)N[C@H]1C(O)O[C@H](CO)[C@@H](O)[C@@H]1O (stereo partly drawn) [GlcNAc, N-Acetylglucosamine]","Synovial neoangiogenesis, animals with finding / animals","[1]; Lateral femoral condyle, N = 6, saline 4/7, P ≦ 0.16",1/6
same,"Synovial thickening/proliferation, animals with finding / animals","[1]; Lateral femoral condyle, N = 6, saline 7/7, P ≦ 0.006",2/6
same,"Synovial neoangiogenesis, animals with finding / animals","[1]; Medial femoral condyle, N = 6, saline 5/7, P ≦ 0.05",1/6
same,"Synovial thickening/proliferation, animals with finding / animals","[1]; Medial femoral condyle, N = 6, saline 7/7, P ≦ 0.006",2/6
same,"Synovial neoangiogenesis, animals with finding / animals","[1]; Tibial plateau, N = 6, saline 4/7, P ≦ 0.16",1/6
same,"Synovial thickening/proliferation, animals with finding / animals","[1]; Tibial plateau, N = 6, saline 7/7, P ≦ 0.0002",1/6
same,Synovial effusion,[2]; intra-articular GlcNAc versus hyaluronan group,no significant difference
same,Joint swelling,"[2]; intra-articular, versus saline",does not significantly affect
same,Synovial effusions,"[2]; intra-articular, versus saline",does not significantly affect
same,Concentration that does not induce chondrocyte cell death,[3],higher than 50 mM
same,Duration of continuous delivery to the joint,[4],more than three weeks
same,"Sulfated glycosaminoglycan loss, histological grade","[5]; Lateral femoral condyle, saline 2.43 ± 0.53, P ≦ 0.03",1.50 ± 0.83
same,"Impairment of cartilage surface integrity, histological grade","[5]; Lateral femoral condyle, saline 2.00 ± 1.00, P ≦ 0.17",1.33 ± 0.51
same,"Sulfated glycosaminoglycan loss, histological grade","[5]; Medial femoral condyle, saline 1.57 ± 0.53, P ≦ 0.4",1.66 ± .33
same,"Impairment of cartilage surface integrity, histological grade","[5]; Medial femoral condyle, saline 1.66 ± 0.41, P ≦ 0.91",1.66 ± 0.81
same,"Sulfated glycosaminoglycan loss, histological grade","[5]; Tibial plateau, saline 1.71 ± 0.76, P ≦ 0.14",1.16 ± 0.40
same,"Impairment of cartilage surface integrity, histological grade","[5]; Tibial plateau, saline 1.71 ± 0.49, P ≦ 0.05",1.16 ± 0.41
same,Surface areas of the cartilage lesions (digital image analysis),"[6]; femoral condyles and tibial plateaus, intra-articular GlcNAc versus hyaluronan group, FIGS. 6a and 6b",greatly reduced
same,Gross morphological analysis of the femoral condyles,[6]; intra-articular GlcNAc versus intra-articular hyaluronan group (n=7),no significant difference
same,"Chondroprotective activity, gross morphology of tibial plateaus","[6]; intra-articular GlcNAc versus intra-articular hyaluronan, p<0.01, FIG. 3",significantly greater
same,Gross morphological analysis of the femoral condyles,"[6]; intra-articular, two times per week for seven weeks, n=7, versus saline control",trend towards improved cartilage condition
same,Rabbits that developed a cartilage lesion on the tibial plateaus,"[6]; intra-articular, two times per week for seven weeks, control group 6 of 7, p<0.003, FIG. 3",1 of 7
same,"Degree of cartilage damage, gross morphological analysis of tibial plateaus and femoral condyles","[7]; intra-muscular 200 mg/kg three times per week for seven weeks, 6 rabbits versus 6 saline controls, FIGS. 1a and 1b",did not reveal a statistically significant difference
same,Synovitis,[7]; intra-muscular GlcNAc,trend towards reduction of synovitis; also recorded: significant reduction of synovitis
same,"Subchondral bone marrow hypercellularity and increased vascularization, animals with finding / animals","[8]; Lateral femoral condyle, N = 6, saline 3/7, P ≦ 0.07",0/6
same,"Subchondral bone marrow hypercellularity and increased vascularization, animals with finding / animals","[8]; Medial femoral condyle, N = 6, saline 3/7, P ≦ 0.07",0/6
same,"Subchondral bone marrow hypercellularity and increased vascularization, animals with finding / animals","[8]; Tibial plateau, N = 6, saline 3/7, P ≦ 0.35",1/6
same,DNA content assessment of synovial tissue,"[9]; intra-articular GlcNAc versus hyaluronan group, p<0.05",significant reduction in synovial hyperplasia and cellularity
same,DNA content in synovial tissue,"[9]; intra-articular, versus saline",does not significantly affect
